In US8524722B2, “Substituted tricyclic compounds and methods of use thereof” (Bayer Intellectual Property GmbH, priority 2007, dated 2013):

biological target: Epidermal Growth Factor Receptor (EGFR) (Homo sapiens (Human), UniProt P00533); test: EGFR HTRF kinase assay; format: biochemical; conditions: not given
Description: EGFR inhibitory activity of compounds of the present invention is quantified employing the EGFR HTRF assay as described in the following paragraphs:
Epidermal Growth Factor Receptor (EGFR), affinity-purified from human carcinoma A431 cells (Sigma-Aldrich, # E3641), is used as kinase. As substrate for the kinase reaction, the biotinylated peptide biotin-Ahx-[…] (C-terminus in amide form) is used (available from, e.g., Biosynthan GmbH, Berlin-Buch, Germany).
EGFR is incubated for 30 min at 22° C. in the presence of different concentrations of test compounds in 5 μl assay buffer [50 mM Hepes/NaOH pH 7.0, 1 mM MgCl2, 5 mM MnCl2, 1.0 mM dithiothreitol, 0.5 mM sodium orthovanadate, 10 μM adenosine triphosphate (ATP), 1 μM substrate, 0.005% (v/v) Tween-20, 1% (v/v) dimethylsulfoxide]. The concentration of EGFR is adjusted depending on the activity of the enzyme lot and is chosen appropriate to have the assay in the linear range; typical concentrations are in the range of 20 U/ml. The reaction is stopped by the addition of 5 μl of a solution of HTRF detection reagents [0.1 μM streptavidine-XLent and 1 nM PT66-Eu-Chelate, an Europium-chelate labelled anti-phosphotyrosine antibody (Perkin Elmer)] in an aqueous EDTA solution [80 mM EDTA, 0.2% (w/v) bovine serum albumin in 50 mM HEPES/NaOH pH 7.0].
The resulting mixture is incubated for 1 h at 22° C. to allow the binding of the biotinylated phosphorylated peptide to the streptavidine-XLent and the PT66-Eu-Chelate. Subsequently, the amount of phosphorylated substrate is evaluated by measurement of the resonance energy transfer from the PT66-Eu-Chelate to the streptavidine-XLent. Therefore, the fluorescence emissions at 620 nm and 665 nm after excitation at 350 nm are measured in an HTRF reader, e.g. a Rubystar (BMG Labtechnologies, Offenburg, Germany) or a Viewlux (Perkin-Elmer). The ratio of the emissions at 665 nm and at […] is taken as the measure for the amount of phosphorylated substrate.

Sequence of Epidermal Growth Factor Receptor (EGFR) (P00533 25-1210): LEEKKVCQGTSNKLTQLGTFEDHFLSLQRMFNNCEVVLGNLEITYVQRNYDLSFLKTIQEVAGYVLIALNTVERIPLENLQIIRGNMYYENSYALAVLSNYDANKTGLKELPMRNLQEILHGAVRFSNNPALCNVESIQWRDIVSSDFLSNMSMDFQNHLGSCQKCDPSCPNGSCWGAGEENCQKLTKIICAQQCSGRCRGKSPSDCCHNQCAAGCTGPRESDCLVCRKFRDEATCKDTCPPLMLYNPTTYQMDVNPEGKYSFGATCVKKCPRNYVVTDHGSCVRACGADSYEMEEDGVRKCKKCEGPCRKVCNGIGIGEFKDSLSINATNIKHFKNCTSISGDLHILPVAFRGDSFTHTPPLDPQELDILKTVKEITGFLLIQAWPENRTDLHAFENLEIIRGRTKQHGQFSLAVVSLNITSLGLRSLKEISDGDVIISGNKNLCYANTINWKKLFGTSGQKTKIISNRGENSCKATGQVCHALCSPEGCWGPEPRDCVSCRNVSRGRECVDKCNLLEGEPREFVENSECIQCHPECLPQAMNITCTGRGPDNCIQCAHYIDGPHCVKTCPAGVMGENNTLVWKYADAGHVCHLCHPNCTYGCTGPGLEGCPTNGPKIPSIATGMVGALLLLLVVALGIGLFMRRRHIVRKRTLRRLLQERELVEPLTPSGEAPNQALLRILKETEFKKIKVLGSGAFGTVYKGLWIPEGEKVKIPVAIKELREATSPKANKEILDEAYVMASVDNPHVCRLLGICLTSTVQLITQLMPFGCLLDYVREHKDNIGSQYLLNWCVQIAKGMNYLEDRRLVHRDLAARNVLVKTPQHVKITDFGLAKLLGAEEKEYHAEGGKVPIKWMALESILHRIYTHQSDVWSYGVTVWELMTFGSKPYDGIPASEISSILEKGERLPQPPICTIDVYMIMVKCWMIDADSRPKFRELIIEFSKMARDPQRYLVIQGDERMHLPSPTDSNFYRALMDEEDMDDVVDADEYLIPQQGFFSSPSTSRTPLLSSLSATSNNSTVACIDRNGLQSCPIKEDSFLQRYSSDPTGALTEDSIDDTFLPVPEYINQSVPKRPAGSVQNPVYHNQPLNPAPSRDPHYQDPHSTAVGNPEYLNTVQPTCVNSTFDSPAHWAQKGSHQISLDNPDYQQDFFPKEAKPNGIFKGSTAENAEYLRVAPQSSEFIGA

Row | IC50 [nM] | SMILES
1 | 1 | CC(C)N(C)C/C=C/C(=O)N1CCc2c(sc3ncnc(Nc4cc(O)cc(Cl)c4)c23)C1 [Example 123, 3-Chloro-5-[(7-{(2E)-4-[methyl(1-methylethyl)amino]but-2-enoyl}-5,6,7,8-tetrahydropyrido[4′,3′:4,5]thieno[2,3-d]pyrimidin-4-yl)amino]phenol]

same assay, conditions: EGFR affinity-purified from A431 cells, 10 μM ATP, 30 min at 22° C.

Row | IC50 [nM] | SMILES
2 | 1 | O=C(/C=C/CN1CCCOCC1)N1CCc2c(sc3ncnc(Nc4ccc(F)c(Cl)c4)c23)C1 [Example 5, N-(3-Chloro-4-fluorophenyl)-7-[(2E)-4-(1,4-oxazepan-4-yl)but-2-enoyl]-5,6,7,8-tetrahydropyrido[4′,3′:4,5]thieno[2,3-d]pyrimidin-4-amine]
3 | 1 | CC(C)(CN1CCOCC1)NC/C=C/C(=O)N1CCc2c(sc3ncnc(Nc4ccc(F)c(Cl)c4)c23)C1 [Example 12, N-(3-Chloro-4-fluorophenyl)-7-{(2E)-4-[(1,1-dimethyl-2-morpholin-4-ylethyl)amino]but-2-enoyl}-5,6,7,8-tetrahydropyrido[4′,3′:4,5]thieno[2,3-d]pyrimidin-4-amine]
4 | 2 | O=C(/C=C/[C@@H]1CCCN1)N1CCc2c(sc3ncnc(Nc4ccc(F)c(Cl)c4)c23)C1 [Example 13, N-(3-Chloro-4-fluorophenyl)-7-{(2E)-3-[(2S)-pyrrolidin-2-yl]prop-2-enoyl}-5,6,7,8-tetrahydropyrido[4′,3′:4,5]thieno[2,3-d]pyrimidin-4-amine]
5 | 1 | CN1CCC[C@H]1/C=C/C(=O)N1CCc2c(sc3ncnc(Nc4ccc(F)c(Cl)c4)c23)C1 [Example 14, N-(3-Chloro-4-fluorophenyl)-7-{(2E)-3-[(2S)-1-methylpyrrolidin-2-yl]prop-2-enoyl}-5,6,7,8-tetrahydropyrido[4′,3′:4,5]thieno[2,3-d]pyrimidin-4-amine]
6 | 4.6 | C[C@@H](Nc1ncnc2sc3c(c12)CCN(C(=O)/C=C/CN(C)C)C3)c1ccccc1 [Example 23, 7-[(2E)-4-(Dimethylamino)but-2-enoyl]-N-[(1R)-1-phenylethyl]-5,6,7,8-tetrahydropyrido[4′,3′:4,5]thieno[2,3-d]pyrimidin-4-amine]
7 | 1 | COCCN(C/C=C/C(=O)N1CCc2c(sc3ncnc(Nc4ccc(F)c(Cl)c4)c23)C1)CCOC [Example 31]
8 | 1 | CN(C)C(=O)N1CCN(C/C=C/C(=O)N2CCc3c(sc4ncnc(Nc5ccc(F)c(Cl)c5)c34)C2)CC1 [Example 70]
9 | 12 | CN(C)C/C=C/C(=O)N1Cc2sc3ncnc(Nc4ccc(F)c(Cl)c4)c3c2C1 [Example 81, N-(3-Chloro-4-fluorophenyl)-6-[(2E)-4-(dimethylamino)but-2-enoyl]-6,7-dihydro-5H-pyrrolo[3′,4′:4,5]thieno[2,3-d]pyrimidin-4-amine]
10 | 5 | CN(C)C/C=C/C(=O)N1Cc2sc3ncnc(Nc4ccc(OCc5cccc(F)c5)c(Cl)c4)c3c2C1 [Example 86, N-{3-Chloro-4-[(3-fluorobenzyl)oxy]phenyl}-6-[(2E)-4-(dimethylamino)but-2-enoyl]-6,7-dihydro-5H-pyrrolo[3′,4′:4,5]thieno[2,3-d]pyrimidin-4-amine]
11 | 19 | CN(C)C/C=C/C(=O)N1Cc2sc3ncnc(Nc4ccc(OCc5ccccn5)c(Cl)c4)c3c2C1 [Example 87, N-[3-Chloro-4-(pyridin-2-ylmethoxy)phenyl]-6-[(2E)-4-(dimethylamino)but-2-enoyl]-6,7-dihydro-5H-pyrrolo[3′,4′:4,5]thieno[2,3-d]pyrimidin-4-amine]
12 | 1 | CC(C)N(C)C/C=C/C(=O)N1CCc2c(oc3ncnc(Nc4ccc(F)c(Cl)c4)c23)C1 [Example 90, N-(3-Chloro-4-fluorophenyl)-7-{(2E)-4-[methyl(1-methylethyl)amino]but-2-enoyl}-5,6,7,8-tetrahydropyrido[4′,3′:4,5]furo[2,3-d]pyrimidin-4-amine]
13 | 10 | CN(C)C/C=C/C(=O)N1CCc2c(sc3ncc(C#N)c(Nc4ccc(F)c(Cl)c4)c23)C1 [Example 95, 4-[(3-Chloro-4-fluorophenyl)amino]-7-[(2E)-4-(dimethylamino)but-2-enoyl]-5,6,7,8-tetrahydrothieno[2,3-b:5,4-c′]dipyridine-3-carbonitrile]
14 | 1 | CN(C/C=C/C(=O)N1CCc2c(sc3ncnc(Nc4cc(O)c(Cl)c(Cl)c4)c23)C1)C(C)(C)C [Example 134, 5-[(7-{(2E)-4-[tert-Butyl(methyl)amino]but-2-enoyl}-5,6,7,8-tetrahydropyrido[4′,3′:4,5]thieno[2,3-d]pyrimidin-4-yl)amino]-2,3-dichlorophenol]
15 | 9.2 | CC(C)N(C)C/C=C/C(=O)N1CCc2sc3ncnc(Nc4ccc(Cl)c(Cl)c4)c3c2C1 [Example 139, N-(3,4-Dichlorophenyl)-6-{(2E)-4-[methyl(1-methylethyl)amino]but-2-enoyl}-5,6,7,8-tetrahydropyrido[3′,4′:4,5]thieno[2,3-d]pyrimidin-4-amine]
16 | 1 | O=C(/C=C/CN1CCCOCC1)N1CCCc2c(sc3ncnc(Nc4ccc(Cl)c(Cl)c4)c23)C1 [Example 143, N-(3,4-Dichlorophenyl)-8-[(2E)-4-(1,4-oxazepan-4-yl)but-2-enoyl]-6,7,8,9-tetrahydro-5H-pyrimido[5′,4′:4,5]thieno[2,3-c]azepin-4-amine]
17 | 4.3 | N#Cc1cnc2sc3c(c2c1Nc1ccc(Cl)c(Cl)c1)CCN(C(=O)/C=C/CN1CCCOCC1)C3 [Example 148, 4-[(3,4-Dichlorophenyl)amino]-7-[(2E)-4-(1,4-oxazepan-4-yl)but-2-enoyl]-5,6,7,8-tetrahydrothieno[2,3-b:5,4-c′]dipyridine-3-carbonitrile]
18 | 6.4 | CC(C)N(C)C/C=C/C(=O)N1CCc2c(sc3ncc(C#N)c(Nc4ccc5c(cnn5Cc5cccc(F)c5)c4)c23)C1 [Example 151, 4-{[1-(3-Fluorobenzyl)-1H-indazol-5-yl]amino}-7-{(2E)-4-[methyl(1-methylethyl)amino]but-2-enoyl}-5,6,7,8-tetrahydrothieno[2,3-b:5,4-c′]dipyridine-3-carbonitrile]

Row | SMILES | IC50 [nM]
19 | O=C(/C=C/CN1C2CCC1CC2)N1CCc2c(sc3ncnc(Nc4ccc(F)c(Cl)c4)c23)C1 [Example 10, 7-[(2E)-4-(7-Azabicyclo[2.2.1]hept-7-yl)but-2-enoyl]-N-(3-chloro-4-fluorophenyl)-5,6,7,8-tetrahydropyrido[4′,3′:4,5]thieno[2,3-d]pyrimidin-4-amine] | 1.1
